According to article PMC9250534, “Synthesis and direct assay of large macrocycle diversities by combinatorial late-stage modification at picomole scale” (Nature Communications, 2022):

target: MDM2 (Homo sapiens, UniProt Q00987); test: MDM2 binding screen of Libraries 3 and 4: displacement of fluorescent probe F-M8 at 750 nM macrocycle; details: Panel b, Library 3: 63 scaffolds combinatorially acylated with 15 carboxylic acids at 30 picomole scale; displacement of fluorescent peptide probe; macrocycle 750 nM
Sequence (Q00987 whole entry): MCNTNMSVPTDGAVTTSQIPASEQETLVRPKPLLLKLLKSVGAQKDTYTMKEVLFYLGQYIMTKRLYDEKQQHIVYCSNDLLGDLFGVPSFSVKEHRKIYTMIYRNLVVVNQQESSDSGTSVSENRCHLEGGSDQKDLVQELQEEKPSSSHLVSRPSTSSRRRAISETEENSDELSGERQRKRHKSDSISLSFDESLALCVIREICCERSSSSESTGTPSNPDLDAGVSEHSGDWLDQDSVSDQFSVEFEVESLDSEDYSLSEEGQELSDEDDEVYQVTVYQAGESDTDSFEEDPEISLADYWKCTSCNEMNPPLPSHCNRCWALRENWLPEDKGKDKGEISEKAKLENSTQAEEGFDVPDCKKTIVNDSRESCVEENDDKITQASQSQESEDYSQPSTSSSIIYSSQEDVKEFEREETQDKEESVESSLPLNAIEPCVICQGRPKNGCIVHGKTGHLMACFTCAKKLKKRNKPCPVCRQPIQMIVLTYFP
Procedure: The cyclic peptide scaffolds required for Libraries 3 and 4 were synthesized as described for those used in Library 2. Due to the presence of many N-methylated amino acids which are more difficult to couple, 200 mM HOAt was applied together with HATU. The scaffolds were diluted to 2 mM in DMSO, and 15 nL were transferred using acoustic dispensing, followed by 15 nL DMSO containing carboxylic acids (40 mM, 20 equiv.), HBTU (40 mM) and DABCO (40 mM). After 6 h reaction at room temperature, 370 nL of DMSO was added to each well, followed by 5 μL of 100 mM Tris-Cl pH 7.4 containing 0.01% v/v Tween20, for quenching overnight.

SMILES	fraction of fluorescent probe displaced
O=C(/C=C/c1ccc2ccccc2c1)NC[C@H]1NC(=O)C2(CC2)CNC(=O)CCSSCCNC(=O)[C@H](Cc2cccc3ccccc23)NC1=O [X-Amcp-D-Dap-1-NaI + Acid 112]	-0.00533
CC(Oc1cccc(Cl)c1)C(=O)NC[C@H]1NC(=O)C2(CC2)CNC(=O)CCSSCCNC(=O)[C@H](Cc2cccc3ccccc23)NC1=O (stereo partly drawn) [X-Amcp-D-Dap-1-NaI + Acid 113]	-0.00533
O=C(CCS(=O)(=O)c1ccccc1)NC[C@H]1NC(=O)C2(CC2)CNC(=O)CCSSCCNC(=O)[C@H](Cc2cccc3ccccc23)NC1=O [X-Amcp-D-Dap-1-NaI + Acid 114]	0.028
O=C1CCSSCCNC(=O)[C@H](Cc2cccc3ccccc23)NC(=O)[C@@H](CNC(=O)C2COc3ccccc3O2)NC(=O)C2(CC2)CN1 (stereo partly drawn) [X-Amcp-D-Dap-1-NaI + Acid 115]	0.015
O=C1CCSSCCNC(=O)[C@H](Cc2ccc3ccccc3c2)NC(=O)[C@@H](CNC(=O)c2ccc(Cl)s2)NC(=O)C2(CC2)CN1 [X-Amcp-D-Dap-2-Nal + Acid 14]	0.00133
O=C1CCSSCCNC(=O)[C@H](Cc2ccc3ccccc3c2)NC(=O)[C@@H](CNC(=O)c2ccc(Cl)cc2)NC(=O)C2(CC2)CN1 [X-Amcp-D-Dap-2-Nal + Acid 25]	-0.019
O=C1CCSSCCNC(=O)C(Cc2ccc3ccccc3c2)NC(=O)C(CNC(=O)C2CC2c2ccccc2)NC(=O)C2(CC2)CN1 [X-Amcp-D-Dap-2-Nal + Acid 105]	-0.00844
O=C(/C=C/c1ccc(Cl)cc1)NC[C@H]1NC(=O)C2(CC2)CNC(=O)CCSSCCNC(=O)[C@H](Cc2ccc3ccccc3c2)NC1=O [X-Amcp-D-Dap-2-Nal + Acid 108]	0.008
O=C(/C=C/c1ccc(OCc2ccccc2)cc1)NC[C@H]1NC(=O)C2(CC2)CNC(=O)CCSSCCNC(=O)[C@H](Cc2ccc3ccccc3c2)NC1=O [X-Amcp-D-Dap-2-Nal + Acid 110]	0.028
O=C1CCSSCCNC(=O)[C@H](Cc2ccc3ccccc3c2)NC(=O)[C@@H](CNC(=O)c2cccc(Oc3ccccc3)c2)NC(=O)C2(CC2)CN1 [X-Amcp-D-Dap-2-Nal + Acid 111]	-0.00533
O=C(CCS(=O)(=O)c1ccccc1)NC[C@H]1NC(=O)C2(CC2)CNC(=O)CCSSCCNC(=O)[C@H](Cc2ccc3ccccc3c2)NC1=O [X-Amcp-D-Dap-2-Nal + Acid 114]	-0.00533
O=C1CCSSCCNC(=O)[C@H](Cc2ccc3ccccc3c2)NC(=O)[C@@H](CNC(=O)C2COc3ccccc3O2)NC(=O)C2(CC2)CN1 (stereo partly drawn) [X-Amcp-D-Dap-2-Nal + Acid 115]	0.015
O=C1CCSSCCNC(=O)[C@H](Cc2c[nH]c3cc(Cl)ccc23)NC(=O)[C@@H](CNC(=O)c2ccc(Cl)s2)NC(=O)C2(CC2)CN1 [X-Amcp-D-Dap-Cl-Trp + Acid 14]	0.008
O=C1CCSSCCNC(=O)[C@H](Cc2c[nH]c3cc(Cl)ccc23)NC(=O)[C@@H](CNC(=O)c2ccc(Cl)cc2)NC(=O)C2(CC2)CN1 [X-Amcp-D-Dap-Cl-Trp + Acid 25]	0.021
O=C(/C=C/c1ccncc1)NC[C@H]1NC(=O)C2(CC2)CNC(=O)CCSSCCNC(=O)[C@H](Cc2c[nH]c3cc(Cl)ccc23)NC1=O [X-Amcp-D-Dap-Cl-Trp + Acid 106]	0.018
O=C(/C=C/c1ccc(Cl)cc1)NC[C@H]1NC(=O)C2(CC2)CNC(=O)CCSSCCNC(=O)[C@H](Cc2c[nH]c3cc(Cl)ccc23)NC1=O [X-Amcp-D-Dap-Cl-Trp + Acid 108]	-0.025
O=C(/C=C/c1ccc(OCc2ccccc2)cc1)NC[C@H]1NC(=O)C2(CC2)CNC(=O)CCSSCCNC(=O)[C@H](Cc2c[nH]c3cc(Cl)ccc23)NC1=O [X-Amcp-D-Dap-Cl-Trp + Acid 110]	0.008
O=C(/C=C/c1ccc2ccccc2c1)NC[C@H]1NC(=O)C2(CC2)CNC(=O)CCSSCCNC(=O)[C@H](Cc2c[nH]c3cc(Cl)ccc23)NC1=O [X-Amcp-D-Dap-Cl-Trp + Acid 112]	-0.00533
O=C(CCS(=O)(=O)c1ccccc1)NC[C@H]1NC(=O)C2(CC2)CNC(=O)CCSSCCNC(=O)[C@H](Cc2c[nH]c3cc(Cl)ccc23)NC1=O [X-Amcp-D-Dap-Cl-Trp + Acid 114]	-0.00533
O=C1CCSSCCNC(=O)[C@@H](Cc2c[nH]c3ccccc23)NC(=O)[C@@H](CNC(=O)c2ccc(Cl)cc2)NC(=O)C2(CC2)CN1 [X-Amcp-D-Dap-D-Trp + Acid 25]	0.008

SMILES	fraction of fluorescent probe displaced
O=C1CCSSCCNC(=O)[C@@H](Cc2c[nH]c3ccccc23)NC(=O)[C@@H](CNC(=O)c2ccc3ccccc3c2)NC(=O)C2(CC2)CN1 [X-Amcp-D-Dap-D-Trp + Acid 107]	0.031
O=C(/C=C/c1ccc(OCc2ccccc2)cc1)NC[C@H]1NC(=O)C2(CC2)CNC(=O)CCSSCCNC(=O)[C@@H](Cc2c[nH]c3ccccc23)NC1=O [X-Amcp-D-Dap-D-Trp + Acid 110]	-0.00533
O=C1CCSSCCNC(=O)[C@@H](Cc2c[nH]c3ccccc23)NC(=O)[C@@H](CNC(=O)c2cccc(Oc3ccccc3)c2)NC(=O)C2(CC2)CN1 [X-Amcp-D-Dap-D-Trp + Acid 111]	-0.019
O=C(CCS(=O)(=O)c1ccccc1)NC[C@H]1NC(=O)C2(CC2)CNC(=O)CCSSCCNC(=O)[C@@H](Cc2c[nH]c3ccccc23)NC1=O [X-Amcp-D-Dap-D-Trp + Acid 114]	0.008
Cn1cc(C[C@@H]2NC(=O)[C@@H](CNC(=O)c3ccc(Cl)s3)NC(=O)C3(CC3)CNC(=O)CCSSCCNC2=O)c2ccccc21 [X-Amcp-D-Dap-Me-Trp + Acid 14]	-0.032
Cn1cc(C[C@@H]2NC(=O)[C@@H](CNC(=O)c3ccc(Cl)cc3)NC(=O)C3(CC3)CNC(=O)CCSSCCNC2=O)c2ccccc21 [X-Amcp-D-Dap-Me-Trp + Acid 25]	-0.00533
Cn1cc(CC2NC(=O)C(CNC(=O)C3CC3c3ccccc3)NC(=O)C3(CC3)CNC(=O)CCSSCCNC2=O)c2ccccc21 [X-Amcp-D-Dap-Me-Trp + Acid 105]	-0.002
Cn1cc(C[C@@H]2NC(=O)[C@@H](CNC(=O)c3ccc4ccccc4c3)NC(=O)C3(CC3)CNC(=O)CCSSCCNC2=O)c2ccccc21 [X-Amcp-D-Dap-Me-Trp + Acid 107]	0.018
Cn1cc(C[C@@H]2NC(=O)[C@@H](CNC(=O)/C=C/c3ccc(Cl)cc3)NC(=O)C3(CC3)CNC(=O)CCSSCCNC2=O)c2ccccc21 [X-Amcp-D-Dap-Me-Trp + Acid 108]	0.008
Cn1cc(C[C@@H]2NC(=O)[C@@H](CNC(=O)/C=C/c3ccc4ccccc4c3)NC(=O)C3(CC3)CNC(=O)CCSSCCNC2=O)c2ccccc21 [X-Amcp-D-Dap-Me-Trp + Acid 112]	0.00133
Cn1cc(C[C@@H]2NC(=O)[C@@H](CNC(=O)CCS(=O)(=O)c3ccccc3)NC(=O)C3(CC3)CNC(=O)CCSSCCNC2=O)c2ccccc21 [X-Amcp-D-Dap-Me-Trp + Acid 114]	0.015
Cn1cc(C[C@@H]2NC(=O)[C@@H](CNC(=O)C3COc4ccccc4O3)NC(=O)C3(CC3)CNC(=O)CCSSCCNC2=O)c2ccccc21 (stereo partly drawn) [X-Amcp-D-Dap-Me-Trp + Acid 115]	0.015
CN1C(=O)[C@@H](CNC(=O)c2ccc(Cl)s2)NC(=O)C2(CC2)CNC(=O)CCSSCCNC(=O)[C@@H]1Cc1c[nH]c2ccccc12 [X-Amcp-D-Dap-NMe-Trp + Acid 14]	0.008
CN1C(=O)[C@@H](CNC(=O)/C=C/c2ccncc2)NC(=O)C2(CC2)CNC(=O)CCSSCCNC(=O)[C@@H]1Cc1c[nH]c2ccccc12 [X-Amcp-D-Dap-NMe-Trp + Acid 106]	-0.015
CN1C(=O)[C@@H](CNC(=O)c2ccc3ccccc3c2)NC(=O)C2(CC2)CNC(=O)CCSSCCNC(=O)[C@@H]1Cc1c[nH]c2ccccc12 [X-Amcp-D-Dap-NMe-Trp + Acid 107]	0.031
CN1C(=O)[C@@H](CNC(=O)c2cccc(Oc3ccccc3)c2)NC(=O)C2(CC2)CNC(=O)CCSSCCNC(=O)[C@@H]1Cc1c[nH]c2ccccc12 [X-Amcp-D-Dap-NMe-Trp + Acid 111]	0.00133
CN1C(=O)[C@@H](CNC(=O)CCS(=O)(=O)c2ccccc2)NC(=O)C2(CC2)CNC(=O)CCSSCCNC(=O)[C@@H]1Cc1c[nH]c2ccccc12 [X-Amcp-D-Dap-NMe-Trp + Acid 114]	0.055
O=C1CCSSCCNC(=O)[C@H](Cc2c[nH]c3ccccc23)NC(=O)[C@@H](CNC(=O)c2ccc(Cl)s2)NC(=O)C2(CC2)CN1 [X-Amcp-D-Dap-Trp + Acid 14]	-0.00533
O=C1CCSSCCNC(=O)[C@H](Cc2c[nH]c3ccccc23)NC(=O)[C@@H](CNC(=O)c2ccc(Cl)cc2)NC(=O)C2(CC2)CN1 [X-Amcp-D-Dap-Trp + Acid 25]	-0.00533
O=C1CCSSCCNC(=O)[C@H](Cc2c[nH]c3ccccc23)NC(=O)[C@@H](CNC(=O)C2CC2c2ccccc2)NC(=O)C2(CC2)CN1 (stereo partly drawn) [X-Amcp-D-Dap-Trp + Acid 105]	-0.015
